Target: T1, TRMT2A RRM (Homo sapiens, UniProt Q8IZ69)
T1 sequence (Q8IZ69 69-147): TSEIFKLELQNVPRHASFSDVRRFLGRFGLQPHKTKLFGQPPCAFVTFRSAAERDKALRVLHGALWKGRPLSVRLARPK
Assay: SPR
Type: binding

Structure (SMILES): NCCCNCCCCNCCCN [spermine]
- Kd: 1300 ± 270 nM

— article PMC8759985 (Computational and Structural Biotechnology Journal, 2021)
